Earlier results as cited in patent publication US20080015265A1, “Methods of treating obesity using satiety factors” (priority 2006, published 2008).
Like-named read-outs stand apart in the source and are kept apart here. Where no end group is shown, it is not given here.

Experiments:
[1] = for food intake (feeding) / weight gain: rats and/or mice
[2] = species not stated
[3] = human subjects; peripheral or intravenous administration
[4] = for food intake: several species including humans

## prolactin-releasing peptide
animals
  food intake: increase food intake

## obestatin
[1]; rats
  jejunal contraction: inhibited jejunal contraction
[1]
  food intake (feeding): suppressed food intake
  weight gain: decreased body weigh gain

## growth hormone-releasing hormone (YADAIFTNSYRKVLGQLSARKLLQDIMSRQQGESNQERGARARL; ends and bridges not checked; UniProt P01286 32-75, looked up)
[2]
  body weight (weight loss / weight gain): stimulate food intake and weight gain
  food intake: stimulate food intake

## motilin (FVPIFTYGELQRMQEKERNKGQ; Motilin; UniProt P12872 26-47, looked up) [polypeptide hormone secreted by Mo cells of the small intestine]
[2]
  gastrointestinal motility: increase the gastrointestinal motility

## C=CC1=C(C)c2cc3[nH]c(cc4nc(cc5[nH]c(cc1n2)c(C)c5CCC(=O)O)C(CCC(=O)O)=C4C)c(C)c3C=C [protoporphyrin]
[2]
  body weight (weight loss / weight gain): decrease food intake and body weight
  food intake: decrease food intake

## hypocretins/orexins
[1]; rats
  appetite: stimulate appetite
[1]
  food intake (feeding): stimulate appetite and food intake

## galanin (GWTLNSAGYLLGPHAVGNHRSFSDKNGLTS; Galanin; UniProt P22466 33-62, looked up)
[1]
  food intake (feeding): stimulate food intake

## leptin
[2]
  body weight (weight loss / weight gain): decrease food intake and body weigh
  food intake: decrease food intake

## CC[C@H](C)[C@H](NC(=O)[C@@H]1CCCN1C(=O)CNC(=O)[C@H](Cc1ccccc1)NC(=O)[C@H](CC(N)=O)NC(=O)[C@H](CC(N)=O)NC(=O)[C@H](CO)NC(=O)[C@H](CO)NC(=O)[C@H](Cc1c[nH]cn1)NC(=O)[C@@H](NC(=O)[C@H](CC(C)C)NC(=O)[C@H](Cc1ccccc1)NC(=O)[C@H](CC(N)=O)NC(=O)[C@H](C)NC(=O)[C@H](CC(C)C)NC(=O)[C@H](CCCNC(=N)N)NC(=O)[C@H](CCC(N)=O)NC(=O)[C@@H](NC(=O)[C@H](C)NC(=O)[C@@H]1CSSC[C@H](NC(=O)[C@@H](N)CCCCN)C(=O)N[C@@H](CC(N)=O)C(=O)N[C@@H]([C@@H](C)O)C(=O)N[C@@H](C)C(=O)N[C@@H]([C@@H](C)O)C(=O)N1)[C@@H](C)O)C(C)C)C(=O)N[C@@H](CC(C)C)C(=O)N1CCC[C@H]1C(=O)N1CCC[C@H]1C(=O)N[C@H](C(=O)N[C@@H](CC(N)=O)C(=O)N[C@H](C(=O)NCC(=O)N[C@@H](CO)C(=O)N[C@@H](CC(N)=O)C(=O)N[C@H](C(=O)N[C@@H](Cc1ccc(O)cc1)C(N)=O)[C@@H](C)O)C(C)C)[C@@H](C)O [pramlintide, reference compound]
[2]
  body weight (weight loss / weight gain): sustained weigh loss
  food intake: decreased food intake

## enterostatin
[1]; mammals, demonstrated in rodent studies
  dietary fat preference: reduce dietary fat preference

## oxytocin
animals
  food intake: increase food intake

## vasopressin (CYFQNCPRG; ends and bridges not checked; cysteine pairing not given here; UniProt P01185 20-28, looked up)
animals
  food intake: reduce food intake

## neurotensin
[2]
  food intake: decrease food intake

## NPW: ligand for orphan G protein-coupled receptors (WYKHVASPRYHTVGRAAGLLMGL; Neuropeptide W-23; UniProt Q8N729 33-55, looked up)
animals
  food intake: stimulate food intake

## pancreatic peptide (APLEPVYPGDNATPEQMAQYAADLRRYINMLTRPRY; ends and bridges not checked; UniProt P01298 30-65, looked up) [PP, 36-amino acid peptide of the NPY family produced in the pancreatic islets]
[3]
  food intake: sustained decrease in appetite and food intake
  hunger / appetite: sustained decrease in appetite
[1]
  food intake (feeding): reduces food intake
  weight gain: reduces food intake and weight gain

## corticotropin-releasing hormone (SEEPPISLDLTFHLLREVLEMARAEQLAQQAHSNRKLMEII; ends and bridges not checked; UniProt P06850 154-194, looked up)
animals
  food intake: reduce food intake

## O=C1N[C@@H](Cc2cnc[nH]2)C(=O)N2CCC[C@@H]12 [cyclo-his-pro]
[2]
  food intake: reduce food intake

## bombesin [bombesin or bombesin-like peptide]
[4]
  food intake: Feed suppression

## somatostatin (AGCKNFFWKTFTSC; ends and bridges not checked; cysteine pairing not given here; UniProt P61278 103-116, looked up)
animals
  food intake: reduce food intake

## PYY3-36
[3]
  food intake: significant food intake reduction
[1]
  food intake (feeding): inhibits food intake
  weight gain: reduced weigh gain

## neuropeptide Y
animals
  food intake: stimulate food intake

## dynorphin
animals
  food intake: stimulate food intake

## β casomorphin
Animals with a high fat diet
  food intake: increase food intake
Animals with a low fat diet
  food intake: decrease food intake

## galanin-like peptide (APAHRGRGGWTLNSAGYLLGPVLHLPQMGDQDGKRETALEILDLWKAIDGLPYSHPPQPS; Galanin-like peptide; UniProt Q9UBC7 25-84, looked up)
[1]
  food intake (feeding): stimulate food intake

## urocortin (DNPSLSIDLTFHLLRTLLELARTQSQRERAEQNRIIFDSV; ends and bridges not checked; UniProt P55089 83-122, looked up)
[1]
  food intake (feeding): reduces feeding
[1]; rats, infused
  drinking: reduces feeding and drinking

## neuropeptide K (DADSSIEKQVALLKALYGHGQISHKRHKTDSFVGLM; ends and bridges not checked; UniProt P20366 72-107, looked up)
animals
  food intake: inhibit food intake

## amylin (KCNTATCATQRLANFLVHSSNNFGAILSSTNVGSNTY; not fully specified (C-terminus, bridges); cysteine pairing not given here; UniProt P10997 34-70, looked up) [37 amino acid peptide released by the β cells of the pancreas]
[2]
  body weight (weight loss / weight gain): sustained weigh loss
  food intake: decreased food intake

## ghrelin (GSSFLSPEHQRVQQRKESKKPPAKLQPR; ends and bridges not checked; also: octanoyl acylation; UniProt Q9UBU3 24-51, looked up) [28 amino acid acylated peptide produced mainly by the stomach]
[4]; rodents and persons
  body weight: increase body weight
  fat oxidation: reducing fat oxidation
[4]
  food intake: stimulating food intake

## Glucagon-like peptide-1 (7-36)-amide (HAEGTFTSDVSSYLEGQAAKEFIAWLVKGR-NH2; UniProt P01275 98-127, looked up) [GLP-1]
[3]
  food intake: reduce food intake
  hunger / appetite: suppress hunger

## neuropeptide B (WYKPAAGHSSYSVGRAAGLLSGLRRSPYA; Neuropeptide B-29; UniProt Q8NG41 25-53, looked up) [ligand for orphan G protein-coupled receptors]
animals
  food intake: stimulate food intake

## beacon
animals
  food intake: stimulate food intake
  weight gain: stimulate food intake and weight gain

## oxyntomodulin (HSQGTFTSDYSKYLDSRRAQDFVQWLMNTKRNRNNIA; Oxyntomodulin; UniProt P01275 53-89, looked up) [37 amino acid peptide, product of the proglucagon gene]
[4]; administered to rodents and humans
  energy intake: reduce energy intake

B1: apolipoprotein A-IV (protein, UniProt P06727 21-396, looked up)
Apolipoprotein A-IV: EVSADQVATVMWDYFSQLSNNAKEAVEHLQKSELTQQLNALFQDKLGEVNTYAGDLQKKLVPFATELHERLAKDSEKLKEEIGKELEELRARLLPHANEVSQKIGDNLRELQQRLEPYADQLRTQVSTQAEQLRRQLTPYAQRMERVLRENADSLQASLRPHADELKAKIDQNVEELKGRLTPYADEFKVKIDQTVEELRRSLAPYAQDTQEKLNHQLEGLTFQMKKNAEELKARISASAEELRQRLAPLAEDVRGNLRGNTEGLQKSLAELGGHLDQQVEEFRRRVEPYGENFNKALVQQMEQLRQKLGPHAGDVEGHLSFLEKDLRDKVNSFFSTFKEKESQDKTLSLPELEQQQEQQQEQQQEQVQMLAPLES
notes: non-gut peptide satiety factor
animals
  food intake: dose dependent reduction of food intake

B2: nesfatin (protein, UniProt P80303 25-106, looked up)
Nesfatin-1: VPIDIDKTKVQNIHPVESAKIEPPDTGLYYDEYLKQVIDVLETDKHFREKLQKADIEEIKSGRLSKELDLVSHHVRTKLDEL
modifications: Nesfatin-1
notes: produced by the brain
animals
  food intake: reduce food intake in a dose-dependent manner

B3: adiponectin (protein, UniProt Q15848 19-244, looked up)
Adiponectin: ETTTQGPGVLLPLPKGACTGWMAGIPGHPGHNGAPGRDGRDGTPGEKGEKGDPGLIGPKGDIGETGVPGAEGPRGFPGIQGRKGEPGEGAYVYRSAFSVGLETYVTIPNMPIRFTKIFYNQQNHYDGSTGKFHCNIPGLYYFAYHITVYMKDVKVSLFKKDKAMLFTYDQYQENNVDQASGSVLLHLEVGDQVWLQVYGEGERNGLYADNDNDSTFTGFLLYHDTN
notes: as for B1
hepatocyte
  sensitivity of the hepatocyte to insulin: increase the sensitivity of the hepatocyte to insulin

B4: ciliary neurotrophic factor (protein, UniProt P26441 1-200, looked up)
Ciliary neurotrophic factor: MAFTEHSPLTPHRRDLCSRSIWLARKIRSDLTALTESYVKHQGLNKNINLDSADGMPVASTDQWSELTEAERLQENLQAYRTFHVLLARLLEDQQVHFTPTEGDFHQAIHTLLLQVAAFAYQIEELMILLEYKIPRNEADGMPINVGDGGLFEKKLWGLKVLQELSQWTVRSIHDLRFISSHQTGIPARGSHYIANNKKM
[2]
  body weight (weight loss / weight gain): cause weigh loss

B5: cholecystokinin (peptide, UniProt P06307 21-115, looked up)
Cholecystokinin: QPVPPADPAGSGLQRAEEAPRRQLRVSQRTDGESRAHLGALLARYIQQARKAPSGRMSIVKNLQNLDPSHRISDRDYMGWMDFGRRSAEEYEYPS
notes: gut peptide released mainly in response to dietary fat
[4]
  food intake: dose-dependent inhibition of food intake
